Data published in paper PMC12282101, “Heat shock protein 90 chaperone activity is required for hepatitis A virus replication” (Journal of Virology, 2025).
Entries after “also recorded” stand apart in the source; their conditions may differ. Structures can show the parent of a compound that is named as a salt. Where two headings read alike, the source gives them in different places.

What was measured:
[1] = system: 18f-NLuc reporter virus; test: microbe, parasite or virus in culture; assay type: cell-based, Hepatitis A virus; settings: for activity at 10 µM: Hepatovirus A, Huh-7.5.1, 72 h, read-out: Normalized HAV production
[2] = system: Huh-7.5.1 cells; settings: 10 µM
[3] = system: HAV; settings: cited from earlier work
[4] = in vitro; settings: human
[5] = system: HM175/18f virus; settings: for IC50: read-out: IC50, HAV replication by RT-qPCR
[6] = system: HM175/18f virus; test: microbe, parasite or virus in culture; settings: Hepatovirus A, Huh-7.5.1, read-out: IC50, HAV replication by RT-qPCR
[7] = system: Huh-7.5 cells
[8] = system: 18f-NLuc reporter virus; settings: for IC50: read-out: IC50, HAV replication by NLuc
[9] = system: 18f-NLuc reporter virus; test: microbe, parasite or virus in culture; assay type: cell-based, Hepatitis A virus; settings: 293T cells; read-out: IC50, HAV replication by NLuc
Method: Cells were lysed in 1× passive lysis buffer (Promega, #E1941) for 15 min at room temperature, then lysates were transferred to opaque white 96-well plates (Corning, #3912). NLuc activity was quantified using the NLuc GLOW Assay kit (Nanolight Technology, #325), and FLuc assays were carried out with the Luciferase Assay System (Promega, E1500). Luminescence was measured using a Biotek Synergy II multi-mode plate reader (BioTek Instruments).

[10] = system: HAV IRES; assay type: cell-based, Hepatitis A virus; settings: 100 nM
[11] = system: Huh-7.5.1 cells; settings: Huh-7.5 or Huh-7.5.1 cells, RT-qPCR experiments
[12] = system: HAV; test: microbe, parasite or virus in culture; assay type: cell-based, Hepatitis A virus; settings: PH5CH8 cells; read-out: IC50, HAV replication by RT-qPCR
[13] = system: 293T cells; test: Cytotoxicity in 293T cells
[14] = system: 18f-NLuc reporter virus; assay type: cell-based, Hepatitis A virus
[15] = system: mouse-passaged HM175 strain of HAV; parameters: species or system Ifnar1^-/- mice; settings: in vivo, ip
[16] = system: Huh-7.5.1 cells; test: Cell viability in the chemical screen (Cell TiterGlo); settings: 10 µM compound, 72 h

Compound | activity at 10 µM [1] [%] | Viability Percent DMSO [2] [Percent DMSO] | Viability Percent DMSO [16] [Percent DMSO] | other results
CC(C)OC(=O)[C@H](C)N[P@](=O)(CO[C@H](C)Cn1cnc2c(N)ncnc21)Oc1ccccc1 [Tenofovir alafenamide] | 141 | 75 | – | –
COc1ccccc1[C@H](Cn1c(=O)n(C(C)(C)C(=O)O)c(=O)c2c(C)c(-c3ncco3)sc21)OC1CCOCC1 [firsocostat] | – | – | – | HAV replication in cell culture (in words) [3]: potently inhibits
CCc1cc(C(N)=O)ccc1-n1nc(C(C)C)c2c(-n3cnc(-c4cnn(C)c4)c3)ccnc21 [TAS116] | – | – | – | CC50 [4]: 835 nM; Blocking of HAV replication (in words) [5]: highly active; IC50 [6]: 84.3 nM
S=C(NCCc1ccccn1)Nc1ccc(Br)cn1 [Trovirdine] | 71 | 165 | – | –
Cc1ccc(NC(=O)C(=O)NC2CC(C)(C)NC(C)(C)C2)cc1 [YYA-021] | – | 121 | – | Normalized HAV production [1]: 1.03
N#Cc1ccc(COC[C@H]2O[C@@H](n3c(NCc4ccc(Cl)c(Cl)c4)nc4c(N)ncnc43)[C@H](O)[C@@H]2O)cc1 [VER155008] | – | – | – | CC50 [7]: > 10 µM; Anti-HAV activity relative to CC50 (in words) [8]: only at concentrations close to their CC50; IC50 [8]: 3320 nM
NC(=O)c1ncn([C@@H]2O[C@H](CO)[C@@H](O)[C@H]2O)n1 [Ribavirin] | 112 | 117 | – | –
NC12CC3CC(CC(C3)C1)C2 [Amantadine hydrochloride] | 87 | 111 | – | –
C=CCNC1=C2C[C@@H](C)C[C@H](OC)[C@H](O)[C@@H](C)/C=C(\C)[C@H](OC(N)=O)[C@@H](OC)/C=C\C=C(/C)C(=O)NC(=CC1=O)C2=O [17-AAG] | – | – | – | IC50 [9]: 11.7 nM; GFP synthesis from circRNA HAV IRES reporter [10]: neither geldanamycin nor 17-AAG inhibited; also recorded: had no effect; CC50 [11]: 418 nM; IC50 [12]: 3.2 nM; Fold by which IC50 is below CC50 ([5]; hepatocyte-derived cells, RT-qPCR): approximately 30 fold; IC50 [5]: 14.2 nM; CC50 [13]: > 1000 nM; NLuc expression at 48 hours post-infection [14]: neither case did either HSP90 inhibitor reduce NLuc expression; Area occupied by IBA-positive cells in liver section [15]: significantly reduced; Increase in serum alanine aminotransferase (ALT) activity versus vehicle [15]: significantly lower; Inflammatory cell infiltrates in liver sections (H&E) [15]: notably fewer and smaller in size; Number of IBA1-positive cells in liver section [15]: significantly reduced; Viral RNA in feces versus vehicle [15]: significantly reduced; Viral RNA in liver versus vehicle [15]: significantly reduced; Viral RNA in serum versus vehicle [15]: significantly reduced
Cc1c(-c2cnccn2)ssc1=S [Oltipraz] | 113 | 90 | – | –
C=C1CC[C@@H]2[C@](C)(COC(=O)CCC(=O)[O-])[C@H](OC(=O)CCC(=O)O)CC[C@@]2(C)[C@@H]1/C=C/C1=CCOC1=O.[K+] [Dehydroandrographolide Succinate Potasium Salt] | – | 102 | – | Normalized HAV production [1]: 1.19
NCCCNCCCCNCCCN [Spermine] | 96 | 112 | – | –
JG98 | – | – | – | CC50 [7]: > 1 µM; Anti-HAV activity relative to CC50 (in words) [8]: only at concentrations close to their CC50; IC50 [8]: 534 nM
Vitamin E | – | 97 | – | Normalized HAV production [1]: 1.19
CC(C)c1cc(-c2n[nH]c(=O)n2-c2ccc3c(ccn3C)c2)c(O)cc1O [STA9090] | – | – | – | CC50 [4]: 147 nM; Blocking of HAV replication (in words) [5]: highly active; IC50 [6]: 12.1 nM
Clc1ccc(C(Cn2ccnc2)OCc2ccsc2Cl)c(Cl)c1 (stereo not drawn) [Vagistat] | 109 | 93 | – | –
COc1cccc(-c2cc(F)ccc2[C@H]2Cc3nc(N)nc(C)c3C(=O)N2)n1 [HSP990] | – | – | – | CC50 [11]: 56.9 nM; IC50 [5]: 2.2 nM; Blocking of HAV replication (in words) ([5]; targeted screen of heat shock protein inhibitors, RT-qPCR): highly active
CC1(C)CC[C@]2(C(=O)O)CC[C@]3(C)C(=CC[C@@H]4[C@@]5(C)CC[C@H](O)C(C)(C)[C@@H]5CC[C@]43C)[C@@H]2C1 [Oleanolic Acid] | 82 | – | 118 | –

Compound | activity at 10 µM [1] [%] | Viability Percent DMSO [2] [Percent DMSO] | Viability Percent DMSO [16] [Percent DMSO] | other results
CN(C)[C@@H]1C(O)=C(C(N)=O)C(=O)[C@@]2(O)C(O)=C3C(=O)c4c(O)cccc4[C@@](C)(O)[C@H]3[C@H](O)[C@@H]12 [Oxytetracycline] | 87 | – | 103 | –
CC(C)(C)Oc1cccc2nc(N)nc(N)c12 [HZ-1157] | – | 16 | – | Normalized HAV production [1]: 2.12
COc1cnc(-n2cnc(C)n2)c2c1c(C(=O)C(=O)N1CCN(C(=O)c3ccccc3)CC1)cn2COP(=O)(O)O [Fostemsavir] | 92 | – | 129 | –
COc1ccc(C2CNC(=O)C2)cc1OC1CCCC1 (stereo not drawn) [Rolipram] | 130 | – | 113 | –
C=C1[C@H](CO)[C@@H](O)C[C@@H]1n1cnc2c(=O)[nH]c(N)nc21 [Entecavir hydrate] | 93 | – | 125 | –
CCS(=O)(=O)CCn1c([N+](=O)[O-])cnc1C [Tinidazole] | 78 | – | 108 | –
Nc1nc(=O)n([C@@H]2CS[C@H](CO)O2)cc1F [Emtricitabine] | 120 | 123 | – | –
Nc1nc2c(ncn2CCC(CO)CO)c(=O)[nH]1 [Penciclovir] | 111 | – | 96 | –
Oc1ccc(Cl)c2cccnc12 [Dermofongin] | – | – | 101 | Normalized HAV production [1]: 0.98
CC(C)CN(C[C@@H](O)[C@H](Cc1ccccc1)NC(=O)O[C@H]1CO[C@H]2OCC[C@H]21)S(=O)(=O)c1ccc(N)cc1 [Darunavir] | 99 | 106 | – | –
COc1ccnc(C[S+]([O-])c2nc3ccc(-n4cccc4)cc3[n-]2)c1C.[Na+] (stereo not drawn) [Ilaprazole sodium] | – | – | 159 | Normalized HAV production [1]: 0.66
O=C1C[C@@H](c2ccc(O)cc2)Oc2cc(O)cc(O)c21 [Naringenin] | 86 | – | 112 | –
Nc1nc(O)c2ncn(COC(CO)CO)c2n1 [Ganciclovir] | 87 | – | 115 | –
CC1(C)[C@@H](O[C@H]2O[C@H](C(=O)O)[C@@H](O)[C@H](O)[C@H]2O[C@@H]2O[C@H](C(=O)O)[C@@H](O)[C@H](O)[C@H]2O)CC[C@]2(C)[C@H]3C(=O)C=C4[C@@H]5C[C@@](C)(C(=O)O)CC[C@]5(C)CC[C@@]4(C)[C@]3(C)CC[C@@H]12.N.N [Diammonium Glycyrrhizinate] | – | – | 116 | Normalized HAV production [1]: 0.78
COC(=O)N[C@H](C(=O)NNC[C@H](O)[C@H](Cc1ccccc1)NC(=O)[C@@H](NC(=O)OC)C(C)(C)C)C(C)(C)C [Des(benzylpyridyl) Atazanavi] | – | 159 | – | Normalized HAV production [1]: 0.67
Cc1ccnc2c1NC(=O)c1cccnc1N2C1CC1 [Nevirapine] | 104 | – | 100 | –
Nc1ncnc2c1ncn2[C@@H]1O[C@H](COP(=O)(O)O)[C@@H](O)[C@H]1O.O [Adenosine 5'-monophosphate monohydrate] | 93 | – | 115 | –
